The text below walks through data of patent US8563741B2, “CDK inhibitors containing a zinc binding moiety” (Curis, Inc., priority 2007, dated 2013).

By melting point is commonly meant the temperature of the solid-liquid transition.

One data set relates to HDAC. The experiment in a line: HDAC fluorimetric assay kit (AK-500, Biomol), HeLa nuclear extract. In kind it is biochemical. The protocol: HDAC inhibitors were screened using an HDAC fluorimetric assay kit (AK-500, Biomol, Plymouth Meeting, Pa.). […] Each assay was setup as follows: Defrosted all kit components and kept on ice until use. Diluted HeLa nuclear extract 1:29 in Assay Buffer (50 mM Tris/Cl, pH 8.0, 137 mM NaCl, 2.7 mM KCl, 1 mM MgCl2). Prepared dilutions of Trichostatin A (TSA, positive control) and tested compounds in assay buffer (5× of final concentration). Diluted Fluor de LysTM Substrate in assay buffer to 100 uM (50 fold=2× final). Diluted Fluor de LysTM developer concentrate 20-fold (e.g. 50 μl plus 950 μl Assay Buffer) in cold assay buffer. Second, diluted the 0.2 mM Trichostatin A 100-fold in the 1× Developer (e.g. 10 μl in 1 ml; final Trichostatin A concentration in the 1× Developer=2 μM; final concentration after addition to HDAC/Substrate reaction=1 μM). Added Assay buffer, diluted trichostatin A or test inhibitor to appropriate wells of the microtiter plate. Added diluted HeLa extract or other HDAC sample to all wells except for negative controls. Allowed diluted Fluor de LysTM Substrate and the samples in the microtiter plate to equilibrate to assay temperature (e.g. 25 or 37° C. Initiated HDAC reactions by adding diluted substrate (25 μl) to each well and mixing thoroughly. Allowed HDAC reactions to proceed for 1 hour and then stopped them by addition of Fluor de LysTM Developer (50 μl). Incubated plate at room temperature (25° C.) for 10-15 min. Read samples in a microtiter-plate reading fluorimeter capable of excitation at a wavelength in the range 350-380 nm and detection of emitted light in the range 440-460 nm.

Another data set concerns the target T1, CDK2/cyclinE (Homo sapiens, UniProt P24941).
T1 construct: C-terminal 6His-tagged, recombinant full-length CDK2 (MW=34 kDa); 6His (C); made in house; host or cells: Sf21 cells (baculovirus)
Briefly: CDK activity assay with p33 ATP, CDK2/cyclinE. The following applies: 1 μM ATP. In kind it is biochemical. The protocol:
CDK2/cyclinE (Accession Number for CDK2; EMBL M68520, for cyclinE1; GenBank NM_001238):
C-terminal 6His-tagged, recombinant full-length CDK2 (MW=34 kDa) in complex with N-terminal GST-tagged, recombinant full-length cyclinE1 (MW=74 kDa) were expressed with baculovirus system in Sf21 cells. Recombinant proteins were purified using Ni2+/NTA agarose and the purity of recombinant protein complex was measured to be around 76% by SDS-PAGE and Coomassie blue staining. Specific Activity of recombinant CDK2/cyclinE was 1336 U/mg, where one unit of CDK2/cylinE1 activity is defined as 1 nmol phosphate incorporated into 0.1 mg/ml histone H1 per minute at 30° C. with a final ATP concentration of 100 μM. Enzyme was stored with concentration of 0.1 mg/ml in 50 mM Tris/HCl pH 7.5, 150 mM NaCl, 0.03% Brij-35, 0.1 mM EGTA, 0.2 mM PMSF, 1 mM benzamidine, 0.1% 2-mercaptoethanol, 270 mM sucrose.

A further data set concerns the target T2, CDK6/cyclinD3 (Homo sapiens, UniProt Q00534).
T2 construct: N-terminal, 6His-tagged full-length human cdk6 (MW=38 kDa); 6His (N); made in house; host or cells: Sf21 cells
The experiment in a line: CDK activity assay with p33 ATP, CDK6/cyclinD3. The following applies: 1 μM ATP; read-out: CDK6/cyclinD IC50. It counts as biochemical. The protocol:
CDK6/cyclinD3 (Accession Number for CDK6; GenBank X66365, for Cyclin D3; EMBL M90814):
N-terminal, 6His-tagged full-length human cdk6 (MW=38 kDa) complexed with N-terminal GST-tagged full-length human cyclin D3 (MW=59 kDa) were expressed in Sf21 cells. Recombinant protein complex was purified using glutathione-agarose and activated with CAK, and repurified with Ni2+/NTA-agarose column. Purity was measured to be at least 68%. Specific Activity was measured to be 39 U/mg, where one unit of cdk6/cyclinD3 activity is defined as 1 nmol phosphate incorporated into 0.1 mg/ml histone H1 per minute at 30° C. with a final ATP concentration of 100 μM. Enzyme was stored at concentration of 0.1 mg/ml in 50 mM Tris-HCl, pH 7.5, 270 mM sucrose, 150 mM NaCl, 1 mM benzamidine, 0.2 mM PMSF, 0.1% 2-mercaptoethanol, 0.1 mM EGTA, 0.03% Brij 35.

pIC50: −log10 of the molar value.

T2 sequence (Q00534 whole entry): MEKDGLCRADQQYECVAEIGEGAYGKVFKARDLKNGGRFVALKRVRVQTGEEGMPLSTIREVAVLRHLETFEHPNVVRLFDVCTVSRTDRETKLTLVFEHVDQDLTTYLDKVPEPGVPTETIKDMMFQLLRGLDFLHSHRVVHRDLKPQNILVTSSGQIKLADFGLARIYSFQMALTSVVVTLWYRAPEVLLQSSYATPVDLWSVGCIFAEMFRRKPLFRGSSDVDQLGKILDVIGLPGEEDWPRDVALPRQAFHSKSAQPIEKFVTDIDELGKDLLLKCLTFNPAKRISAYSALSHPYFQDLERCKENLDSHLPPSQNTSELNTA
T2 sequence (P30281 whole entry partner): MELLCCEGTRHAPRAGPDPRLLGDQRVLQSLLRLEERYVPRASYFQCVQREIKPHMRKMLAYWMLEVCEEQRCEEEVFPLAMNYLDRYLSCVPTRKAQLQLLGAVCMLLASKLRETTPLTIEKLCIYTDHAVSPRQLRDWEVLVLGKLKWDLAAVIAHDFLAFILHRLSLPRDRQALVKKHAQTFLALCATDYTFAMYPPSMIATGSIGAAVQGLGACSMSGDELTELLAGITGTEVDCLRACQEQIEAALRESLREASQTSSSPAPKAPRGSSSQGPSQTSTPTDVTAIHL

For the compound `CC(C)(C)c1cnc(CSc2cnc(NC(=O)C3CCN(CCCCC(=O)NO)CC3)s2)o1` [Compound 2, N-(5-((5-tert-butyloxazol-2-yl)methylthio)thiazol-2-yl)-1-(5-(hydroxyamino)-5-oxopentyl)piperidine-4-carboxamide], the melting point lay in the range of 93 to 97 °C. The compound further had a pIC50 in the data set on HDAC of 5.00 to 6.00. Also, the pIC50 against CDK2/cyclinE was > 7.00.
For the compound `CC(C)(C)c1cnc(CSc2cnc(NC(=O)CCCC(=O)NO)s2)o1` [Compound 5, N^1-(5-((5-tert-butyloxazol-2-yl)methylthio)thiazol-2-yl)-N^5-hydroxyglutaramide], the pIC50 is 6.00 to 7.00 in the data set on HDAC, > 7.00 against CDK2/cyclinE and 6.00 to 7.00 on CDK6/cyclinD3.
As for `CC(C)(C)c1cnc(CSc2cnc(NC(=O)Cc3ccc(OCCC(=O)NO)cc3)s2)o1` [Compound 23, 3-(4-(2-(5-((5-tert-butyloxazol-2-yl)methylthio)-thiazol-2-ylamino)-2-oxoethyl)phenoxy)-N-hydroxypropanamide], the melting point was in the range of 93 to 95 °C. In the data set with HDAC, the pIC50 was > 7.00. On CDK2/cyclinE, the pIC50 was > 7.00.
With `CC(C)(C)c1cnc(CSc2cnc(NC(=O)CCCCC(=O)NO)s2)o1` [Compound 6, N^1-(5-((5-tert-butyloxazol-2-yl)methylthio)-thiazol-2-yl)-N^6-hydroxyadipamide], the pIC50 with HDAC is 6.00 to 7.00; against CDK2/cyclinE it was > 7.00; at CDK6/cyclinD3, 6.00 to 7.00.
On to `CC(C)(C)c1cnc(CSc2cnc(NC(=O)CCCNCCC(=O)NO)s2)o1` [Compound 13, N-(5-((5-tert-butyloxazol-2-yl)methylthio)thiazol-2-yl)-4-(3-(hydroxyamino)-3-oxopropylamino)butanamide], for which the pIC50 with HDAC was < 5.00; on CDK2/cyclinE it was > 7.00; at CDK6/cyclinD3, 6.00 to 7.00.
For `CC(C)(C)c1cnc(CSc2cnc(NC(=O)C3CCN(CCCC(=O)NO)CC3)s2)o1` [Compound 1, N-(5-((5-tert-butyloxazol-2-yl)methylthio)thiazol-2-yl)-1-(4-(hydroxyamino)-4-oxobutyl)piperidine-4-carboxamide], the melting point lay in the range of 176 to 180 °C. In the data set with HDAC, the pIC50 is < 5.00. Further, the pIC50 against CDK2/cyclinE was > 7.00.
